Test results as given in patent US20220048987A1, “METHOD OF TREATMENT TO PREVENT OR REVERSE AGE-ASSOCIATED INFLAMMATION, COGNITIVE DECLINE, AND NEURODEGENERATION” (The Board of Trustees of the Leland Stanford Junior …, priority 2020, published 2022).

Key:
Assay type in all cases: cell-based
mouse astrocytes = test: OCR and ECAR (Seahorse) in mouse astrocytes; settings: primary mouse astrocytes, 100 nM, 20 h
Experimental: (§1) Cells were plated at 1.8×10^6 cells per well in a Seahorse XF24 Cell Culture Microplate (Agilent). Cells were then treated with indicated inhibitors or agonists in each experiment for 20 h. Cells were washed twice with Agilent Seahorse XF Media (Agilent) supplemented with 1 mM pyruvate, 2 mM L-glutamine, and 10 mM D-glucose; a final volume of 525 μl was placed in each well. Cells were then incubated in a 0% CO2 chamber at 37° C. for 1 h before being placed into a Seahorse XFe24 Analyzer (Agilent). For OCR and ECAR mitostress test experiments, cells were treated with 1 μM oligomycin, 2 μM carbonyl cyanide p-trifluoromethoxyphenylhydrazone (FCCP), and 0.5 μM rotenone/antimycin (indicated by three black arrows in each seahorse trace). For mitoFlex Fuel test experiments, cells were treated with UK5099 (200 μM) and BPTES (200 μM)/Etomoxir (80 μM). A total of three OCR and pH measurements were taken after each compound was administered. All Seahorse experiments were repeated at least three times unless otherwise indicated. All OCR and ECAR data were normalized to cell number per well using CyQUANT (ThermoFisher Scientific, Waltham, Mass., USA).
Primary astrocyte cultures were prepared from cerebral cortices of postnatal day 1-2 C57BL/6J mice. […]

[1] = tested on: human monocyte-derived macrophages (human MDMs); test: Real-time oxygen consumption rate (OCR) and ECAR (Seahorse) in human MDMs; settings: 20 h
Experimental: as §1
Peripheral blood mononuclear cells from de-identified healthy donors (young<35 years old, aged>65 years old) were obtained from the Stanford Blood Center and transferred to 50 ml conical tubes. Samples were diluted with 20 ml PBS and layered onto 10 ml of Ficoll-Paque (GE Healthcare) using a Pasteur pipette. Tubes were centrifuged at 1,500 r.p.m. for 25 min without brake at 20° C. The mononuclear cell layer was transferred to a new 50 ml conical tube, resuspended in 50 ml 1×PBS and centrifuged at 1500 r.p.m. for 10 min, repeated twice. After centrifugation, monocytes were isolated using a Monocyte Isolation Kit, human (MACS; Miltenyi Biotech). Cells were then plated 10×10^6 per 10-cm petri dish and differentiated for 7 days in Roswell Park Memorial Institute (RPMI) media supplemented with 10% FBS, 1% penicillin-streptomycin, and 50 ng ml^−1 M-CSF (Peprotech).

[2] = tested on: mouse hippocampal neurons; test: OCR and ECAR (Seahorse) in mouse hippocampal neurons; settings: primary mouse hippocampal neurons, 100 nM, 20 h
Experimental: as §1
Hippocampi were dissected from embryonic Day 17.5 mice embryos, dissociated using trypsin (2 mg/ml) and DNase I (0.6 mg/ml), and plated at a density of 100, 000 cells per well in Seahorse XF24 culture plate coated with poly-L-lysine. […]

[3] = tested on: mouse peritoneal macrophages; test: OCR and ECAR (Seahorse) in mouse peritoneal macrophages; settings: aged (18-20 mo) mouse peritoneal macrophages, 100 nM, 20 h
Experimental: as §1, with “USA). […]” for “USA).”
Cd11bCre, and WT mice. Mice were injected intraperitoneally with 1.5 ml 3% (w/v) thioglycolate medium (BD Biosciences), and primary macrophages were isolated 3-4 days later by flushing with ice-cold 1×PBS buffer (Corning). […]

human MDMs = test: Chemokine and cytokine multiplex assay, supernatant of human MDMs; settings: aged (>65 yo) human MDMs, stimulated 8 h later
Experimental: Hippocampal lysates or mouse plasma were stored at −80° C. and cytokine analysis was carried out at the Human Immune Monitoring Core (Stanford University) or Eve Technologies (Calgary, Alberta, Canada) using Luminex mouse 39-plex kits and Human 71-plex kits. Plates were read using a Luminex LabMap200 instrument or a MSD Chemiluminescence instrument with a lower bound of 100 beads per sample per measured cytokine. Each sample was tested in triplicate. Mean fluorescence intensity (MFI) was averaged over duplicate wells for each cytokine per sample on each plate. All were transcardially perfused prior to isolation of hippocampi and other brain tissue.
Peripheral blood mononuclear cells from de-identified healthy donors (young<35 years old, aged>65 years old) were obtained from the Stanford Blood Center and transferred to 50 ml conical tubes. […]
Plasmid-containing human GYS1 shRNA (Table 3) or Scr (2 μg) (HuSH shRNA shGYS1 Lenti Cloning Vector [pGFP-C-shLenti]) were incubated with a mixture of nucleofection solution and P4 primary cell supplement (82 μl:18 μl nucleofection solution:supplement) and placed in nucleofection cuvettes. […] Cells were then plated in 10-cm plates and incubated 37° C. under 5% CO2 for 8 h before GYS1 protein expression was analyzed by quantitative immunoblotting.

| SMILES | OCR and ECAR (mouse astrocytes) | ECAR (extracellular acidification rate, glycolysis) ([1]; human MDMs, dose response) | basal OCR (oxygen consumption) ([1]; human MDMs, dose response) | OCR and ECAR [2] | basal respiration and ECAR [3] | immune phenotypes (immune factors in supernatant) of aged human MDMs + GYS1 shRNA (human MDMs) | OCR in GYS1-deficient aged human MDMs ([1]; aged (>65 yo) human MDMs nucleofected with shGYS1, 100 nM, 8 h post nucleofection) | bioenergetic or immune factor phenotypes of aged human MDMs lacking GYS1 ([1]; aged human MDMs + GYS1 shRNA, 100 nM) |
| --- | --- | --- | --- | --- | --- | --- | --- | --- |
| CCCCC[C@H](O)/C=C/[C@H]1[C@H](O)CC(=O)[C@@H]1C/C=C\CCCC(=O)O [PGE2, prostaglandin E2] | no significant effects | decreased glycolysis | suppressed oxygen consumption | no significant effects | – | – | – | – |
| NS(=O)(=O)c1ccc(-n2nc(C(F)(F)F)cc2-c2ccc(Cl)cc2)cc1 [SC236] | – | – | – | – | partially phenocopies EP2 receptor antagonism | – | – | – |
| CCCC1([C@H](O)C/C=C/[C@H]2[C@H](O)CC(=O)[C@@H]2CCCCCCC(=O)OC)CCC1 [butaprost] | no significant effects | – | – | no significant effects | – | refractory to further EP2 receptor activation | refractory to treatment | did not alter |
